Molecules are shown by their SMILES. pEC50, pIC50: −log10 of the molar value. Like-named read-outs stand apart in the source and are kept apart here.

One data set concerns Rat whole blood (RWB). In words: LTB4 secretion assay in RWB (rat whole blood). Conditions: Rattus norvegicus. The class given is cell-based. The method in brief:
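Heparinized blood from male Sprague Dawley rats (6-9 weeks) diluted 1:1 in RPMI, pre-incubated 15 min at 37 °C with compound (2.5 nM to 50 uM). Stimulated with 10 uM calcium ionophore A23187 for 10 min at 37 °C, stopped with ice-cold PBS; LTB4 in supernatant quantified by EIA.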

A further data set deals with T1, human 5-LOX (Homo sapiens, UniProt P09917).
T1 construct: purchased Cayman 60402; host or cells: insect cells (lysate)
T1 sequence (P09917 1-674): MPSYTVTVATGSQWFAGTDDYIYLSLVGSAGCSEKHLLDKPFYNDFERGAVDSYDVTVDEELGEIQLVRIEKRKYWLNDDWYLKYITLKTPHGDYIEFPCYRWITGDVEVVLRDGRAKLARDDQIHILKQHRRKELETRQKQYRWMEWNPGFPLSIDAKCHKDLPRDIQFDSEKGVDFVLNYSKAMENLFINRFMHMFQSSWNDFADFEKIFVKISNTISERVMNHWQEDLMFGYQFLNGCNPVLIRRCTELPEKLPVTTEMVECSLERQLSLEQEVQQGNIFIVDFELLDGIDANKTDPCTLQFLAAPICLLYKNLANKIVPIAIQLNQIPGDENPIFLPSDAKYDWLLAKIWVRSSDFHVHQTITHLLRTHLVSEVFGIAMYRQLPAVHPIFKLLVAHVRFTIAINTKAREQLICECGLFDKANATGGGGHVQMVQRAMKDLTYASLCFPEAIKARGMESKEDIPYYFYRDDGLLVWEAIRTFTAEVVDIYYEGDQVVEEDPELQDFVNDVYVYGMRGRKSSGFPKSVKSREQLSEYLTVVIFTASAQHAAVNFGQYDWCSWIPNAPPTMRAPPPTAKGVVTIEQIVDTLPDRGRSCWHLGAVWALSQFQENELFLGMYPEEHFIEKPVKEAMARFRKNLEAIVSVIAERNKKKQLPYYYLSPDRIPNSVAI
Briefly: 5-LOX enzyme activity, fluorescence method (5-HPETE, H2DCFDA). It is filed as biochemical. Particulars: for pIC50: read-out: 5-LO (IC50). The method in brief: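 Compound (0.5 nM to 10 uM) pre-incubated 5 min with enzyme; reaction started with ATP (100 uM final) and arachidonic acid (3 uM final). All steps at room temperature, fluorescence read-out.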

The subject of data set [1] is Rat basophilic leukemia (RBL) cells. In words: LTB4 secretion assay in RBL (rat basophilic leukemia cells). Conditions: Rattus norvegicus. It is filed as cell-based. The method in brief:
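Cells seeded 2×10^4/well the day before, then pre-incubated 15 min at 37 °C in EMEM/0.5% FBS with compound (5 nM to 100 uM). Stimulation with 2.5 uM arachidonic acid plus 5 uM A23187 (final) for 10 min at 37 °C; LTB4 in supernatant quantified by EIA.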

For orientation: pEC50 means the negative decadic logarithm of the EC50, by convention in mol/L. A word on the melting point: it is the temperature of the solid-liquid transition. By pIC50 is commonly meant the IC50 on a negative log10 scale, so that one unit is a factor of ten. Consider `CC(Cc1ccc(Cl)cc1Cl)Nc1nc2cc(N)ccc2[nH]1` (centres unmarked) [Compound 107], for which the melting point is more than 200.9 °C. The same compound had a negative logarithm of the EC50 (pEC50) with Rat whole blood (RWB) of less than 4.70. In addition, on human 5-LOX, the pIC50 is more than 6.00. For the same compound, in data set [1] (RBL), the pEC50 is more than 5.00.
Take `Cn1c(NCc2ccc(Oc3ccc4c(Cl)cccc4n3)cc2)nc2ccc(NC3COC3)cc21` [Compound 425]: the melting point lay in the range of 102.3 to 107.3 °C. Moreover, at human 5-LOX, the pIC50 is more than 6.00. Further, in data set [1] (RBL), the pEC50 was more than 5.00.
Broadly, the IC50 is the concentration that gives 50% inhibition. Read a high IC50 as weaker potency in that assay. Compound `Nc1ccc2nc(NCc3ccc(Cl)cn3)[nH]c2c1` [Compound 158] yielded a melting point of 101.8 to 104 °C. The same compound had an IC50 at human 5-LOX (5-LO (IC50, uM)) of less than 1 µM. The compound also had a pEC50 in data set [1] of less than 4.70.
`O=C(Nc1nc2cc(NCc3cnc[nH]3)ccc2[nH]1)c1ccc(F)cc1` [Compound 27]: the melting point was > 142.9 °C (dec.). For the same compound, the pIC50 at human 5-LOX was 5.00 to 6.00. The compound further showed a pEC50 in data set [1] (RBL) of less than 4.70.
As for `Nc1ccc2[nH]c(NCc3ccc(Oc4ccc(F)c(Cl)c4)cc3)nc2c1` [Compound 102], the melting point was in the range of 58.4 to 66.6 °C. The same compound showed a pEC50 with Rat whole blood (RWB) of more than 5.00. Moreover, the negative-log IC50 (pIC50) on human 5-LOX is more than 6.00. This compound also showed a pEC50 in data set [1] (RBL) of more than 5.00.
`Nc1ccc2[nH]c(NCc3ccc(Oc4cccc(Cl)c4)cc3)nc2c1` [Compound 122] registered a melting point of more than 160.8 °C. Further, in the data set on Rat whole blood (RWB), the pEC50 was more than 5.00. Besides, the pIC50 at human 5-LOX is more than 6.00. Besides, the negative-log EC50 (pEC50) in data set [1] (RBL) was more than 5.00.
The compound `Nc1ccc2nc(NC3CCCC3)n(CCOc3ccc(OC(F)(F)F)cc3)c2c1` [Compound 120] showed a melting point of 200.7 to 201.3 °C. In the data set on Rat whole blood (RWB), this compound showed a negative-log EC50 (pEC50) of more than 5.00. Besides, the pIC50 on human 5-LOX is more than 6.00. In data set [1] (RBL), this compound showed a negative-log EC50 (pEC50) of more than 5.00.
Turning to `Nc1ccc2nc(N)n(Cc3ccc(Oc4ccc(Cl)cc4)cc3)c2c1` [Compound 111], the melting point was in the range of 156.4 to 158.5 °C. Also, the pEC50 with Rat whole blood (RWB) was more than 5.00. Moreover, the pIC50 at human 5-LOX is more than 6.00. Moreover, the pEC50 in data set [1] (RBL) was more than 5.00.
`CC(C)(C)c1ccc(CNc2nc3ccc(N)cc3[nH]2)cc1` [Compound 116] came in with a melting point of more than 130.8 °C. The compound further gave a pEC50 with Rat whole blood (RWB) of 4.70 to 5.00. Further, the pIC50 at human 5-LOX is more than 6.00. The same compound gave a negative logarithm of the EC50 (pEC50) in data set [1] (RBL) of more than 5.00.
The compound `Nc1ccc2[nH]c(N3CCC(Oc4ccc(F)cc4)CC3)nc2c1` [Compound 34] gave a melting point of 193.3 to 205 °C. Moreover, on human 5-LOX, the negative logarithm of the IC50 (pIC50) was more than 6.00. This compound also had a pEC50 in data set [1] (RBL) of 4.70 to 5.00.
`CN(C)c1ccc2[nH]c(NCc3ccc(Oc4ccccc4)cc3)nc2c1` [Compound 98] showed a melting point of 116.8 to 118.7 °C. Moreover, in the data set with Rat whole blood (RWB), the pEC50 is more than 5.00. In addition, the pIC50 on human 5-LOX is more than 6.00. Further, in data set [1] (RBL), the negative-log EC50 (pEC50) was more than 5.00.
On to `CC(C)(C)Oc1ccc(CNc2nc3ccc(N)cc3[nH]2)cc1` [Compound 121], for which the melting point was more than 59.7 °C. The same compound showed a negative logarithm of the EC50 (pEC50) in the data set with Rat whole blood (RWB) of less than 4.70. The pIC50 at human 5-LOX was more than 6.00. The pEC50 in data set [1] (RBL) is more than 5.00.
`Cn1c(NCc2ccc(Oc3nc4ccc(Cl)cc4n3C)cc2)nc2ccc(NC3COC3)cc21` [Compound 423] gave a melting point of 138.9 to 140.8 °C. Further, the negative logarithm of the IC50 (pIC50) at human 5-LOX is more than 6.00. Besides, the pEC50 in data set [1] (RBL) was more than 5.00.
Taken in the same sequence, the figures for `Nc1ccc2c(c1)nc(N)n2CCc1ccc(F)cc1` [Compound 42] were 178.2 to 179.6 °C, 5.00 to 6.00 and 4.70 to 5.00.
Taken in the same sequence, the figures for `Nc1ccc2[nH]c(NCc3ccc(S(=O)(=O)Nc4ccc(Cl)cc4)cc3)nc2c1` [Compound 151] were more than 200 °C, more than 6.00 and less than 4.70.
Taken in the same sequence, the figures for `Cn1c(NCc2ccc(OCc3ccc(Cl)cn3)cc2)nc2ccc(N)cc21` [Compound 314] were 96.6 to 100.9 °C, more than 6.00 and 4.70 to 5.00.
Consider `Cn1c(NCc2ccc(Oc3ccc(F)cn3)cc2)nc2ccc(N)cc21` [Compound 301], for which the melting point was 121.4 to 124.6 °C. Besides, the pIC50 at human 5-LOX is more than 6.00. Besides, the negative-log EC50 (pEC50) in data set [1] (RBL) was more than 5.00.

For the origin of these results see patent publication US11447486B2, “2-amino-benzimidazole derivatives and their use as 5-lipoxygenase and/or prostaglandin E synthase inhibitors” (INSTITUT PASTEUR KOREA, priority 2014, dated 2022).
